Patent publication US20250230193A1, “CYCLIC COMPOUND HAVING SELECTIVE KRAS INHIBITORY EFFECT ON HRAS AND NRAS” (CHUGAI SEIYAKU KABUSHIKI KAISHA, priority 2022, published 2025)

Experiments:
[1] = molecular target: GDP-bound NRAS wild-type protein (Homo sapiens, UniProt P01111); test: Binding to NRAS by surface plasmon resonance (SPR), Single Cycle Kinetics; conditions: KD ratio NRAS/KRAS
[2] = molecular target: GDP-bound HRAS wild-type protein (Homo sapiens, UniProt P01112); test: Binding to HRAS by surface plasmon resonance (SPR), Single Cycle Kinetics; conditions: KD ratio HRAS/KRAS
[3] = SPR, GDP-bound wild-type proteins

GDP-bound HRAS wild-type protein, sequence (P01112 whole entry): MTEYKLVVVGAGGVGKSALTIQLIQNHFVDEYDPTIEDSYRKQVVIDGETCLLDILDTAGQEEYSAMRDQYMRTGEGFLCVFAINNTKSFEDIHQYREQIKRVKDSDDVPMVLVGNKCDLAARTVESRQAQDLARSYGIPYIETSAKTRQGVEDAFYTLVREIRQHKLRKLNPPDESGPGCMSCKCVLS
GDP-bound NRAS wild-type protein, sequence (P01111 whole entry): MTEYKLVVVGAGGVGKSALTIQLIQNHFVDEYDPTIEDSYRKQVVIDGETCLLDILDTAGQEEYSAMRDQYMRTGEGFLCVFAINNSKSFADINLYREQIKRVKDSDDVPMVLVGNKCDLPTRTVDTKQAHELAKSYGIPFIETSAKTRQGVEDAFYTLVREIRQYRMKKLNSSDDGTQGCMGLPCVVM

Row | SMILES | NRAS/KRAS (ratio of KD value with respect to GDP-bound NRAS wild-type protein to KD value with respect to KRAS) ([1]; class symbols) | HRAS/KRAS (ratio of KD value with respect to GDP-bound HRAS wild-type protein to KD value with respect to KRAS) ([2]; class symbols) | NRAS/KRAS (ratio of KD value with respect to GDP-bound NRAS wild-type protein to KD value with respect to KRAS) [1, 3] | HRAS/KRAS (ratio of KD value with respect to GDP-bound HRAS wild-type protein to KD value with respect to KRAS) [2, 3]
1 | CCC[C@H]1C(=O)N[C@@H]([C@@H](C)CC)C(=O)N(C)CC(=O)N(C)[C@H]2C/C=C\CCN(C2=O)[C@@H](Cc2ccc(C)cc2)C(=O)N(C)CC(=O)N[C@@H](CCc2ccc(Cl)c(Cl)c2)C(=O)N2CCCCC[C@H]2C(=O)NC2(CC(C)(C)C2)C(=O)N(C)[C@@H](C(CC)CC)C(=O)N(C)[C@H](C(=O)N(C)C)CC(=O)N1C [PP2962] | AA (a compound having 20 or more is denoted as AA) | A (a compound having 10 or more and less than 20 is denoted as A) |  | 
2 | CCC(CC)[C@H]1C(=O)N(C)[C@H](C(=O)N(C)C)CC(=O)N(C)[C@@H](COC)C(=O)N[C@@H]([C@@H](C)CC)C(=O)N(C)CC(=O)N(C)[C@H]2C/C=C\CCN(C2=O)[C@@H](Cc2ccc(C)cc2)C(=O)N(C)CC(=O)N[C@@H](CCc2cc(F)c(C(F)(F)F)c(F)c2)C(=O)N2CC3(CC3)C[C@H]2C(=O)NC2(CC(C)(C)C2)C(=O)N1C [PP2963] | AA (a compound having 20 or more is denoted as AA) | A (a compound having 10 or more and less than 20 is denoted as A) |  | 
3 | CCC[C@H]1C(=O)N[C@@H]([C@@H](C)CC)C(=O)N(C)CC(=O)N(C)[C@H]2C/C=C\CCN(C2=O)[C@@H](Cc2ccc(C(F)(F)F)cc2)C(=O)N(C)CC(=O)N[C@@H](CCc2ccc(C(F)(F)F)c(Cl)c2)C(=O)N2CCCCC[C@H]2C(=O)NC2(CC(C)(C)C2)C(=O)N(C)[C@@H](C(CC)CC)C(=O)N(C)[C@H](C(=O)N(C)C)CC(=O)N1C [PP2964] | AA (a compound having 20 or more is denoted as AA) | A (a compound having 10 or more and less than 20 is denoted as A) |  | 
4 | CCC(CC)[C@H]1C(=O)N(C)[C@H](C(=O)N(C)C)CC(=O)N(C)[C@@H](COC)C(=O)N[C@@H]([C@@H](C)CC)C(=O)N(C)CC(=O)N(C)[C@H]2C/C=C\CCN(C2=O)[C@@H](Cc2ccc(C(F)(F)F)cc2)C(=O)N(C)CC(=O)N[C@@H](CCc2ccc(C(F)(F)F)c(Cl)c2)C(=O)N2CC3(CC3)C[C@H]2C(=O)NC2(CC(C)(C)C2)C(=O)N1C [PP2965] | AA (a compound having 20 or more is denoted as AA) | A (a compound having 10 or more and less than 20 is denoted as A) |  | 
5 | CCC(CC)[C@H]1C(=O)N(C)[C@H](C(=O)N(C)C)CC(=O)N(C)[C@@H](COC)C(=O)N[C@@H]([C@@H](C)CC)C(=O)N(C)CC(=O)N(C)[C@H]2C/C=C\CCN(C2=O)[C@@H](Cc2ccc(C)cc2)C(=O)N(C)CC(=O)N[C@@H](CCc2ccc(C(F)(F)F)c(Cl)c2)C(=O)N2CCCCC[C@H]2C(=O)NC2(CC(C)(C)C2)C(=O)N1C [PP2966] | A (a compound having 10 or more and less than 20 is denoted as A) | A (a compound having 10 or more and less than 20 is denoted as A) |  | 
6 | CCC(CC)[C@H]1C(=O)N(C)[C@H](C(=O)N(C)C)CC(=O)N(C)[C@@H](COC)C(=O)N[C@@H]([C@@H](C)CC)C(=O)N(C)CC(=O)N(C)[C@H]2C/C=C\CCN(C2=O)[C@@H](Cc2ccc(C)cc2)C(=O)N(C)CC(=O)N[C@@H](CCc2ccc(C(F)(F)F)c(Cl)c2)C(=O)N2CC3(CC3)C[C@H]2C(=O)NC2(CC(C)(C)C2)C(=O)N1C [PP2967] | AA (a compound having 20 or more is denoted as AA) | A (a compound having 10 or more and less than 20 is denoted as A) |  | 
7 | CCC[C@H]1C(=O)N[C@@H]([C@@H](C)CC)C(=O)N(C)CC(=O)N(C)[C@H]2C/C=C\CCN(C2=O)[C@@H](Cc2ccc(C(F)(F)F)cc2)C(=O)N(C)CC(=O)N[C@@H](CCc2ccc(C(F)(F)F)c(OC)c2)C(=O)N2CCCCC[C@H]2C(=O)NC2(CC(C)(C)C2)C(=O)N(C)[C@@H](C(CC)CC)C(=O)N(C)[C@H](C(=O)N(C)C)CC(=O)N1C [PP2968] | AA (a compound having 20 or more is denoted as AA) | A (a compound having 10 or more and less than 20 is denoted as A) |  | 
8 | CCC[C@H]1C(=O)N[C@@H]([C@@H](C)CC)C(=O)N(C)CC(=O)N(C)[C@H]2C/C=C\CCN(C2=O)[C@@H](Cc2ccc(C(F)(F)F)cc2)C(=O)N(C)CC(=O)N[C@@H](CCc2ccc(C(F)(F)F)c(Cl)c2)C(=O)N2C[C@H](OCC)C[C@H]2C(=O)NC2(CC(C)(C)C2)C(=O)N(C)[C@@H](CC(C)(C)C)C(=O)N(C)[C@H](C(=O)N(C)C)CC(=O)N1C [PP2969] | AA (a compound having 20 or more is denoted as AA) | A (a compound having 10 or more and less than 20 is denoted as A) |  | 
9 | CCC(CC)[C@H]1C(=O)N(C)[C@H](C(=O)N(C)C)CC(=O)N(C)[C@@H](COC)C(=O)N[C@@H]([C@@H](C)CC)C(=O)N(C)CC(=O)N(C)[C@H]2C/C=C\CCN(C2=O)[C@@H](Cc2ccc(C)cc2)C(=O)N(C)CC(=O)N[C@@H](CCc2ccc(C(F)(F)F)c(OC)c2)C(=O)N2CCCCC[C@H]2C(=O)NC2(CC(C)(C)C2)C(=O)N1C [PP2970] | A (a compound having 10 or more and less than 20 is denoted as A) | A (a compound having 10 or more and less than 20 is denoted as A) |  | 
10 | CCC[C@H]1C(=O)N[C@@H](C2CCCC2)C(=O)N(C)CC(=O)N(C)[C@H]2C/C=C\CCN(C2=O)[C@@H](Cc2ccc(C(F)(F)F)cc2)C(=O)N(C)CC(=O)N[C@@H](CCc2ccc(C(F)(F)F)c(Cl)c2)C(=O)N2C[C@H](OCC)C[C@H]2C(=O)NC2(CC(C)(C)C2)C(=O)N(C)[C@@H](CC(C)(C)C)C(=O)N(C)[C@H](C(=O)N(C)C)CC(=O)N1C [PP2971] |  |  | A (a compound having 10 or more and less than 20 is denoted as A) | A (a compound having 10 or more and less than 20 is denoted as A)
11 | CCC[C@H]1C(=O)N[C@@H]([C@@H](C)CC)C(=O)N(C)CC(=O)N(C)[C@H]2C/C=C\CCN(C2=O)[C@@H](Cc2ccc(C(F)(F)F)cc2)C(=O)N(C)CC(=O)N[C@@H](CCc2ccc(C(F)(F)F)c(Cl)c2)C(=O)N2C[C@H](OCC)C[C@H]2C(=O)NC2(CC(C)(C)C2)C(=O)N(C)[C@@H]([C@@H](C)CC)C(=O)N(C)[C@H](C(=O)N(C)C)CC(=O)N1C [PP2973] |  |  | A (a compound having 10 or more and less than 20 is denoted as A) | A (a compound having 10 or more and less than 20 is denoted as A)
12 | CCC(CC)[C@H]1C(=O)N(C)[C@H](C(=O)N(C)C)CC(=O)N(C)[C@@H](COC)C(=O)N[C@@H]([C@@H](C)CC)C(=O)N(C)CC(=O)N(C)[C@H]2C/C=C\CCN(C2=O)[C@@H](Cc2ccc(C)cc2)C(=O)N(C)CC(=O)N[C@@H](CCc2ccc(Cl)c(Cl)c2)C(=O)N2CCCCC[C@H]2C(=O)NC2(CC(C)(C)C2)C(=O)N1C [PP2974] |  |  | A (a compound having 10 or more and less than 20 is denoted as A) | A (a compound having 10 or more and less than 20 is denoted as A)
13 | CCC[C@H]1C(=O)N[C@@H]([C@@H](C)CC)C(=O)N(C)CC(=O)N(C)[C@H]2C/C=C\CCN(C2=O)[C@@H](Cc2ccc(C(F)(F)F)cc2)C(=O)N(C)CC(=O)N[C@@H](CCc2ccc(C(F)(F)F)c(Cl)c2)C(=O)N2C[C@H](OCC)C[C@H]2C(=O)NC2(CC(C)(C)C2)C(=O)N(C)[C@@H](CC(F)(F)F)C(=O)N(C)[C@H](C(=O)N(C)C)CC(=O)N1C [PP2975] |  |  | A (a compound having 10 or more and less than 20 is denoted as A) | A (a compound having 10 or more and less than 20 is denoted as A)
14 | CCC[C@H]1C(=O)N[C@@H]([C@@H](C)CC)C(=O)N(C)CC(=O)N(C)[C@H]2C/C=C\CCN(C2=O)[C@@H](Cc2ccc(C(F)(F)F)cc2)C(=O)N(C)CC(=O)N[C@@H](CCc2ccc(C(F)(F)F)c(Cl)c2)C(=O)N2C[C@H](OCC)C[C@H]2C(=O)NC2(CC(C)(C)C2)C(=O)N(C)[C@@H](CC(C)C)C(=O)N(C)[C@H](C(=O)N(C)C)CC(=O)N1C [PP2977] |  |  | A (a compound having 10 or more and less than 20 is denoted as A) | A (a compound having 10 or more and less than 20 is denoted as A)
15 | C#CC[C@H]1C(=O)N[C@@H]([C@@H](C)CC)C(=O)N(C)CC(=O)N(C)[C@H]2C/C=C\CCN(C2=O)[C@@H](Cc2ccc(C)cc2)C(=O)N(C)CC(=O)N[C@@H](CCc2cc(F)c(C(F)(F)F)c(F)c2)C(=O)N2CC3(CC3)C[C@H]2C(=O)NC2(CC(C)(C)C2)C(=O)N(C)[C@@H](C2CCCC2)C(=O)N(C)[C@H](C(=O)N(C)C)CC(=O)N1C [PP2978] |  |  | A (a compound having 10 or more and less than 20 is denoted as A) | A (a compound having 10 or more and less than 20 is denoted as A)
